Data as given in ChEMBL document CHEMBL1909046, “DrugMatrix in vitro pharmacology data”.

Assays:
[1] = DRUGMATRIX: Sodium/nucleoside co-transporter radioligand binding (ligand: nitrobenzylthioinosine); type: cell membranes, Cavia porcellus, Dunkin-Hartley, Cerebral cortex, Membrane; conditions: Not Active = under 50% inhibition at 10 µM
[2] = target: Vascular endothelial growth factor receptor 1 (Homo sapiens, UniProt P17948); type: cell-based; conditions: huvec; further: in other assays of this panel Not Active means under 50% inhibition at 10 µM
[3] = target: Vasopressin V1a receptor (Homo sapiens, UniProt P37288); type: cell membranes, Membrane; conditions: hek293; further: in other assays of this panel Not Active means under 50% inhibition at 10 µM
[4] = DRUGMATRIX: GABAA, Flunitrazepam, Central radioligand binding (ligand: [3H] Flunitrazepam); type: cell membranes, Rattus norvegicus, Wistar, Brain, Membrane; conditions: Not Active = under 50% inhibition at 10 µM
[5] = target: T1, 3-hydroxy-3-methylglutaryl-coenzyme A reductase (Homo sapiens, UniProt P04035); parameters: species or system Escherichia coli;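 further: enzyme inhibition assay of HMG-CoA reductase using radiolabeled [14C]HMG-CoA as substrate; in other assays of this panel Not Active means under 50% inhibition at 10 µM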
T1 sequence (P04035 whole entry): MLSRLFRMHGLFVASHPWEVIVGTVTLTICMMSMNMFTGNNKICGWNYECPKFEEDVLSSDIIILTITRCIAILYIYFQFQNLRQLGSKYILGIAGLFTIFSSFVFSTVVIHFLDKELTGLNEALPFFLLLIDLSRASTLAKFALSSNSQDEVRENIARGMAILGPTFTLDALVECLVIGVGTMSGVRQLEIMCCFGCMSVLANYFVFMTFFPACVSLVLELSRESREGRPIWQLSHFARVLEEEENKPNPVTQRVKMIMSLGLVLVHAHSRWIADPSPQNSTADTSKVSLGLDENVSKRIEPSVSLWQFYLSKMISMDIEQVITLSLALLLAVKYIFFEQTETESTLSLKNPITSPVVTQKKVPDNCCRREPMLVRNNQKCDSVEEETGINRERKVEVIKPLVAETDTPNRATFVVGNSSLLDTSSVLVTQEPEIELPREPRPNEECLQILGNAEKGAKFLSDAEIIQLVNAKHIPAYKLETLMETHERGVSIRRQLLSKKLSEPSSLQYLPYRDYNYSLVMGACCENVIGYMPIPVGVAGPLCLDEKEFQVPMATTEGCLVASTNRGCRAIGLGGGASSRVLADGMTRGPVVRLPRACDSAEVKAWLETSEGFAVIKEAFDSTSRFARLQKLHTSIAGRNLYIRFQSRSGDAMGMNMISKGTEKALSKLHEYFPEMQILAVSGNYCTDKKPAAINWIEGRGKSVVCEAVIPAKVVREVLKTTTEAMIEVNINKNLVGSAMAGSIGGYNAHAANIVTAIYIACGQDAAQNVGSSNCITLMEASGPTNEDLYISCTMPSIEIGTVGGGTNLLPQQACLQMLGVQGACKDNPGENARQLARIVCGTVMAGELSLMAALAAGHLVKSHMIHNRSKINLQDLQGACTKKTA

[6] = target: T2, Muscarinic acetylcholine receptor M2 (Homo sapiens, UniProt P08172); type: cell membranes, CHO-K1, Membrane; conditions: cho-k1; further: in other assays of this panel Not Active means under 50% inhibition at 10 µM
T2 sequence (P08172 whole entry): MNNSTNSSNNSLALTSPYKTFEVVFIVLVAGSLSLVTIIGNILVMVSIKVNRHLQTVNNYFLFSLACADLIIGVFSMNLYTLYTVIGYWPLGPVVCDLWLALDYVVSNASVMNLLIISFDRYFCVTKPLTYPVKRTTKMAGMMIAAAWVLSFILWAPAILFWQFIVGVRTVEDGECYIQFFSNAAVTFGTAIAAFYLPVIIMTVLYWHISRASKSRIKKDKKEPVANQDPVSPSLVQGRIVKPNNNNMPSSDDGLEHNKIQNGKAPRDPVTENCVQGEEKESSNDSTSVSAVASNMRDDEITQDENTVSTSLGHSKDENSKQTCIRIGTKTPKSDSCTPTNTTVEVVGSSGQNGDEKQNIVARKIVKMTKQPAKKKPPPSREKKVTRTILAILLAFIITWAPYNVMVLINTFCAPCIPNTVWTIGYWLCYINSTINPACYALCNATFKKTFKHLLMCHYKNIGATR

[7] = target: T3, Muscarinic acetylcholine receptor M5 (Homo sapiens, UniProt P08912); type: cell membranes, CHO-K1, Membrane; conditions: cho-k1; further: in other assays of this panel Not Active means under 50% inhibition at 10 µM
T3 sequence (P08912 whole entry): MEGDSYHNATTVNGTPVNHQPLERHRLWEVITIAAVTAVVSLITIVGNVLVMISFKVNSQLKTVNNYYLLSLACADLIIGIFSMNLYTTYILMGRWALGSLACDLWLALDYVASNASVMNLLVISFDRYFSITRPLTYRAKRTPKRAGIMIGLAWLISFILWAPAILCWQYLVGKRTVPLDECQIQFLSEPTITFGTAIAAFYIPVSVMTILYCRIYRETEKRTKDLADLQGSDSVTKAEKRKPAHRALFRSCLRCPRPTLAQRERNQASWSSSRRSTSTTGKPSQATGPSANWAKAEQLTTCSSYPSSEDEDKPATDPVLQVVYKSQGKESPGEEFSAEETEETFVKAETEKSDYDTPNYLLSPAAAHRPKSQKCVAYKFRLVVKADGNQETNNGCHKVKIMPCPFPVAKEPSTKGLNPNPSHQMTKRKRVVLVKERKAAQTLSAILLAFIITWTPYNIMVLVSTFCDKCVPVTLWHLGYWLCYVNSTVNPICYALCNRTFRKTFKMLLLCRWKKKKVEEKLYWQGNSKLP

[8] = target: Kappa-type opioid receptor (Homo sapiens, UniProt P41145); assay: DRUGMATRIX: Opiate kappa (OP2, KOP) radioligand binding (ligand: [3H] Diprenorphine); type: cell membranes, HEK293, Membrane; conditions: hek293; Not Active = under 50% inhibition at 10 µM
[9] = target: T4, Caspase-1 (Homo sapiens, UniProt P29466); parameters: species or system Escherichia coli
T4 sequence (P29466 whole entry): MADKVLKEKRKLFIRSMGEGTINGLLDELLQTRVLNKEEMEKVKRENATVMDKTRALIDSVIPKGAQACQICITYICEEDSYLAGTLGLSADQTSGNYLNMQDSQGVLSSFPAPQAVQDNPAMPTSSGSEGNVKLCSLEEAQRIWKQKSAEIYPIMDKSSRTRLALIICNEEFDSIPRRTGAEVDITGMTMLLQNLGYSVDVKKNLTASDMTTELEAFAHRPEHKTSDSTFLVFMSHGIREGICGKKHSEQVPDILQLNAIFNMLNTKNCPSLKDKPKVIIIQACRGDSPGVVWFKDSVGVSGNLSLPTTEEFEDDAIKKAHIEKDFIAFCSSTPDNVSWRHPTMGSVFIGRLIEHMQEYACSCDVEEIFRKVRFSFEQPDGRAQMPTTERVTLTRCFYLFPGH

[10] = target: Mitogen-activated protein kinase 14 (Homo sapiens, UniProt Q16539); parameters: species or system Escherichia coli
Sequence of Mitogen-activated protein kinase 14 (Q16539 whole entry): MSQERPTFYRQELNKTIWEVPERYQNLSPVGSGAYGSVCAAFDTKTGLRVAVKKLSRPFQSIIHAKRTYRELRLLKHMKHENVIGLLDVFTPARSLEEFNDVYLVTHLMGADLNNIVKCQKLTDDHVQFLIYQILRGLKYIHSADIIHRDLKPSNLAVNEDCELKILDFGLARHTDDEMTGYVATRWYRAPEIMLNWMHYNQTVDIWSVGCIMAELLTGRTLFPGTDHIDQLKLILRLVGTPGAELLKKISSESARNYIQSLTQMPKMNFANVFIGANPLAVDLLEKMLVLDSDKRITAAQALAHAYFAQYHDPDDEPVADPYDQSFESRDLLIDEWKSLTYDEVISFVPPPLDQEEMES

Sequence of Vascular endothelial growth factor receptor 1 (P17948 whole entry): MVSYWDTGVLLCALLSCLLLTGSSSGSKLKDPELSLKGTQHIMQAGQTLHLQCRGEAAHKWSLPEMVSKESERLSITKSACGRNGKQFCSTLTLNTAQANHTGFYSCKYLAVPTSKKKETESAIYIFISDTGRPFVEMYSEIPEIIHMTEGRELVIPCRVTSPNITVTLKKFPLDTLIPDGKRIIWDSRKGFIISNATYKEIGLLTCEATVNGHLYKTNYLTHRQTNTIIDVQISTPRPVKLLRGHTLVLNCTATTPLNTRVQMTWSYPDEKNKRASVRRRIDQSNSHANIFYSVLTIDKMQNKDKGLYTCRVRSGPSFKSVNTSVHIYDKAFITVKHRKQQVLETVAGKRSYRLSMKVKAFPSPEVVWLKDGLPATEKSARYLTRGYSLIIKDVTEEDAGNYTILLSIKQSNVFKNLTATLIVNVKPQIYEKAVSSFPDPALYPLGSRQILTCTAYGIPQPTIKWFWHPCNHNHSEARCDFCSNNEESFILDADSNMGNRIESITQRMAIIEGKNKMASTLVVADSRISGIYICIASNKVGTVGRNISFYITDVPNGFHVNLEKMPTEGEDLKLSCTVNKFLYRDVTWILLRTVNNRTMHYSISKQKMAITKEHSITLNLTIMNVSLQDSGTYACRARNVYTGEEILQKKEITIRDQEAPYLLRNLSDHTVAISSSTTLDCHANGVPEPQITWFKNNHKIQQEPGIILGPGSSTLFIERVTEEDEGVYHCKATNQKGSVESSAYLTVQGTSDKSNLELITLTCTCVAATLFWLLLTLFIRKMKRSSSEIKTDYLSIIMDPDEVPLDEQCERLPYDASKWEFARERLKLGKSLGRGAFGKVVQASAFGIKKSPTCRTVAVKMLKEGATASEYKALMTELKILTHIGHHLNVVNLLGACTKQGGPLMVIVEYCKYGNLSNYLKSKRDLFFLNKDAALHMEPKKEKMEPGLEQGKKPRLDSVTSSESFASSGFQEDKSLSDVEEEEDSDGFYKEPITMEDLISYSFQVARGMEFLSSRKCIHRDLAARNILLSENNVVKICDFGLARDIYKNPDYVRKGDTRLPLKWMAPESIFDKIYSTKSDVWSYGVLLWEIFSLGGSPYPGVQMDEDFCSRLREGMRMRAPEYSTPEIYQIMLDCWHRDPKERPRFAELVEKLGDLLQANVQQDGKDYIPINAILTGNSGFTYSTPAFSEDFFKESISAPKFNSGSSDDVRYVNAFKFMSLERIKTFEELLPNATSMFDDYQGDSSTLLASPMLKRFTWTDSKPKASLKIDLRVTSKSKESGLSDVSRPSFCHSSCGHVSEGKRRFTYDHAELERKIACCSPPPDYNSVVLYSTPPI
Sequence of Kappa-type opioid receptor (P41145 whole entry): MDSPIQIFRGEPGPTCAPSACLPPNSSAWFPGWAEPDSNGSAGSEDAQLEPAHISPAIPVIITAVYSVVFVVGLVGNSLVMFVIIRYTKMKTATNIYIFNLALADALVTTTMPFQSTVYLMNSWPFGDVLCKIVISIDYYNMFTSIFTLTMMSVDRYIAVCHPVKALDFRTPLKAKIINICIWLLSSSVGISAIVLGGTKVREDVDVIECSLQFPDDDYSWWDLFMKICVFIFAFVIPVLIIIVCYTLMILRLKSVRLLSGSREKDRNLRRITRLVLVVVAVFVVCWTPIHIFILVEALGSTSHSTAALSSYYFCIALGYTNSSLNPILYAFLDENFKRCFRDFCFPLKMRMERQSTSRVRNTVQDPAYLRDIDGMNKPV
Sequence of Vasopressin V1a receptor (P37288 whole entry): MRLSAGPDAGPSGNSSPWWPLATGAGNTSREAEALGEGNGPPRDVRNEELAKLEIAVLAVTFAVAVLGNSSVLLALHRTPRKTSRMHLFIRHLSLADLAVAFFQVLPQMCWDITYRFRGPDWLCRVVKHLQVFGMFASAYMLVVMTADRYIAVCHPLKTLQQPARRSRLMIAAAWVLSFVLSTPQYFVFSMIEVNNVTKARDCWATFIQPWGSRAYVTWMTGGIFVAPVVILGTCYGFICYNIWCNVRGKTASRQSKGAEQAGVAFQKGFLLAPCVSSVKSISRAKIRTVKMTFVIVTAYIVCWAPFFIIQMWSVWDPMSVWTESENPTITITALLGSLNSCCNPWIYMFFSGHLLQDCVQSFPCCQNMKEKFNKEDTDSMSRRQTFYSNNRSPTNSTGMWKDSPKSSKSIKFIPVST

CC=CC(=O)N(CC)c1ccccc1C
Not Active: IC50 [1] | Ki [1] | IC50 [2] | IC50 [3] | IC50 [4] | Ki [4] | IC50 [5] | IC50 [6] | IC50 [7] | IC50 [8] | IC50 [9] | IC50 [10]

C=C1C(=O)O[C@@H]2C3O[C@]3(C)CC/C=C(\C)CC[C@@H]12 (stereo partly drawn)
Not Active: IC50 [1] | Ki [1] | IC50 [2] | IC50 [3] | IC50 [4] | Ki [4] | IC50 [5] | IC50 [6] | IC50 [7] | IC50 [8] | IC50 [9] | IC50 [10]

COc1ccc2c(c1)c(CC(=O)OCC(=O)O)c(C)n2C(=O)c1ccc(Cl)cc1 [ACEMETACIN]
Not Active: IC50 [1] | Ki [1] | IC50 [2] | IC50 [3] | IC50 [4] | Ki [4] | IC50 [5] | IC50 [6] | IC50 [7] | IC50 [8] | IC50 [9] | IC50 [10]

CCCSc1ccc2nc(NC(=O)OC)[nH]c2c1 [ALBENDAZOLE]
Not Active: IC50 [1] | Ki [1] | IC50 [2] | IC50 [3] | IC50 [4] | Ki [4] | IC50 [5] | IC50 [6] | IC50 [7] | IC50 [8] | IC50 [9] | IC50 [10]

Cc1[nH]cnc1CN1CCc2c(c3ccccc3n2C)C1=O [ALOSETRON]
Not Active: IC50 [1] | Ki [1] | IC50 [2] | IC50 [3] | IC50 [4] | Ki [4] | IC50 [5] | IC50 [6] | IC50 [7] | IC50 [8] | IC50 [9] | IC50 [10]

O=c1cc(-c2ccccc2)oc2c1ccc1ccccc12 [ALPHA-NAPHTHOFLAVONE]
Not Active: IC50 [1] | Ki [1] | IC50 [2] | IC50 [3] | IC50 [4] | Ki [4] | IC50 [5] | IC50 [6] | IC50 [7] | IC50 [8] | IC50 [9] | IC50 [10]

NCC[C@H](O)C(=O)N[C@@H]1C[C@H](N)[C@@H](O[C@H]2O[C@H](CN)[C@@H](O)[C@H](O)[C@H]2O)[C@H](O)[C@H]1O[C@H]1O[C@H](CO)[C@@H](O)[C@H](N)[C@H]1O [AMIKACIN]
Not Active: IC50 [1] | Ki [1] | IC50 [2] | IC50 [3] | IC50 [4] | Ki [4] | IC50 [5] | IC50 [6] | IC50 [7] | IC50 [8] | IC50 [9] | IC50 [10]

CC1(C)S[C@@H]2[C@H](NC(=O)[C@H](N)c3ccc(O)cc3)C(=O)N2[C@H]1C(=O)O [AMOXICILLIN]
Not Active: IC50 [1] | Ki [1] | IC50 [2] | IC50 [3] | IC50 [4] | Ki [4] | IC50 [5] | IC50 [6] | IC50 [7] | IC50 [8] | IC50 [9] | IC50 [10]

CCOC(=O)OC(C)OC1=C(C(=O)Nc2ccccn2)N(C)S(=O)(=O)c2ccccc21 (stereo not drawn) [AMPIROXICAM]
Not Active: IC50 [1] | Ki [1] | IC50 [2] | IC50 [3] | IC50 [4] | Ki [4] | IC50 [5] | IC50 [6] | IC50 [7] | IC50 [8] | IC50 [9] | IC50 [10]
